Measurements as given in paper PMC7749390, “Neuroprotective activity of Ulmus pumila L. in Alzheimer's disease in rats; role of neurotrophic factors” (Heliyon, 2020).
≈ marks a conversion by molar mass, not a printed value. Where two headings read alike, the source gives them in different places.

Tests used:
Electric-eel AChE = biological target: T1, Electric-eel AChE (Electrophorus electricus, UniProt O42275); assay: biochemical; conditions: for inhibition at 6.25 µM: read-out: % Inhibition 6.25μM; for inhibition at 12.5 µM: read-out: % Inhibition 12.5μM; for inhibition at 25 µM: read-out: % Inhibition 25μM; for inhibition at 50 µM: read-out: % Inhibition 50μM
T1 construct: purchased Sigma
T1 sequence (O42275 24-633): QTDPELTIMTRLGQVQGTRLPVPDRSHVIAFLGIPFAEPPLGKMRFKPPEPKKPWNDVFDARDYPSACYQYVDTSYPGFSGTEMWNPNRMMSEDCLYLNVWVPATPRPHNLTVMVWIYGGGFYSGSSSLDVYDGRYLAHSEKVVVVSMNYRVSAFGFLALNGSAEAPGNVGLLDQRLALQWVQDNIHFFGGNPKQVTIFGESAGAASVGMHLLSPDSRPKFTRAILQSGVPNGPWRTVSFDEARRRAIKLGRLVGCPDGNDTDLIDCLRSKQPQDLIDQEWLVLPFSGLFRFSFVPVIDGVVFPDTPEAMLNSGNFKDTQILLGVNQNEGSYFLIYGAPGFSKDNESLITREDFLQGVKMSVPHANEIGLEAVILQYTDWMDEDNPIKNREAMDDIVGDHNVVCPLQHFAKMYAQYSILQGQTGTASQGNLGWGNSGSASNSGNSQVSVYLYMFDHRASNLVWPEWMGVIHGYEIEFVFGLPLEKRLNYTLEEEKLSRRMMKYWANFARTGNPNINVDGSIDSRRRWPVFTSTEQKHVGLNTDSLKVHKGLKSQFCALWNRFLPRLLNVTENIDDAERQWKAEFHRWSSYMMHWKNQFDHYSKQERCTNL
Protocol: The reaction mixture contained 150 μL of (100 mM) sodium phosphate buffer (pH 8.0), 10 μL of 5,5-Dithiobis-(2-nitrobenzoic acid) (DTNB, Sigma), 10 μL of test-extract solution and 20 μL of acetyl cholinesterase solution (Electric-eel AChE- Sigma) were mixed and incubated for 15 min (37 °C) followed by the addition of 10ml of acetylthiocholine (Sigma) to initiate the reaction. Hydrolysis of acetylthiocholine was monitored by the formation of yellow 5-thio-2- nitrobenzoate anion measured by UV- Vis Shimadzu spectrophotometer-USA at a wavelength of 412 nm (15 min).
Statistical analysis: reactions were carried out in triplicates and the data were expressed as mean ± SEM. The inhibitory concentration (IC50) of the total extract and each compound, was graphically evaluated by a non-linear regression method using Graph Pad Prism (Ver. 5.0) software.

[1] = Superoxide anion scavenging assay
[2] = DPPH radical scavenging assay
[3] = table, mean ± SEM, n = 3, read-out: IC50

Compound: O=c1c(O[C@@H]2O[C@H](CO)[C@@H](O)[C@H](O)[C@H]2O)c(-c2ccc(O)c(O)c2)oc2cc(O)cc(O)c12 [Compound 5, quercetin-3-O-β-D-gulucopyranoside]
- IC50 (Electric-eel AChE): 31.72 ± 0.017 µM
- inhibition at 6.25 µM (Electric-eel AChE): 3.9 ± 1%
- inhibition at 12.5 µM (Electric-eel AChE): 14.4 ± 0.9%
- inhibition at 25 µM (Electric-eel AChE): 36.3 ± 1.6%
- inhibition at 50 µM (Electric-eel AChE): 72.8 ± 2.6%

Compound: O=c1c(O)c(-c2ccc(O)c(O)c2)oc2cc(O)cc(O)c12 [quercetin]
- IC50, superoxide anion radical inhibitory activity [1]: 45.3 ± 1.6 µg/mL (≈ 150 µM)

Compound: O=c1c(O[C@@H]2O[C@H](CO)[C@@H](O)[C@H](O)[C@H]2O)c(-c2ccc(O)cc2)oc2cc(O)cc(O)c12 [Compound 3, kaempferol 3-o-β-D-glucoside]
- IC50 (Electric-eel AChE): 29.03 ± 0.0155 µM
- inhibition at 6.25 µM (Electric-eel AChE): 3.7 ± 0.6%
- inhibition at 12.5 µM (Electric-eel AChE): 14.6 ± 1.2%
- inhibition at 25 µM (Electric-eel AChE): 39.4 ± 0.8%
- inhibition at 50 µM (Electric-eel AChE): 79.3 ± 0.8%

Compound: CN(CCCCCCN(C)C(=O)Oc1ccc[n+](C)c1)C(=O)Oc1ccc[n+](C)c1 [distigmine bromide, reference compound]
- IC50 (Electric-eel AChE): 26.83 ± 0.02 µM

Compound: Oc1cc(O)c2c(c1)OC(c1ccc(O)c(O)c1)C(O)C2 (single isomer, unassigned; (+)) [Compound 1, (+)-catechin]
- inhibition at 6.25 µM (Electric-eel AChE; 6.25μM, mean ± SEM, n = 3): 4.6 ± 1%
- inhibition at 12.5 µM (Electric-eel AChE; 12.5μM, mean ± SEM, n = 3): 16.2 ± 2.4%
- inhibition at 25 µM (Electric-eel AChE; 25μM, mean ± SEM, n = 3): 32.5 ± 2.5%
- inhibition at 50 µM (Electric-eel AChE; 50μM, mean ± SEM, n = 3): 70.3 ± 1.2%
- IC50 (Electric-eel AChE; [3]): 33.61 ± 0.0295 µM

Compound: CC1OC(OCC2OC(Oc3c(-c4ccc(O)cc4)oc4cc(O)cc(O)c4c3=O)C(O)C(O)C2O)C(O)C(O)C1O (stereo not shown) [Compound 8, Kaempferol 3-o-robinobioside]
- inhibition at 6.25 µM (Electric-eel AChE; 6.25μM, mean ± SEM, n = 3): 1.5 ± 0.8%
- inhibition at 12.5 µM (Electric-eel AChE; 12.5μM, mean ± SEM, n = 3): 4.4 ± 0.9%
- inhibition at 25 µM (Electric-eel AChE; 25μM, mean ± SEM, n = 3): 19.9 ± 1.8%
- inhibition at 50 µM (Electric-eel AChE; 50μM, mean ± SEM, n = 3): 59.3 ± 2.9%
- IC50 (Electric-eel AChE; [3]): 43.13 ± 0.13 µM

Compound: Oc1cc(O)c2c(c1)O[C@H](c1ccc(O)c(O)c1)[C@H](O)C2 [Compound 2, (-)-epicatechin]
- inhibition at 6.25 µM (Electric-eel AChE; 6.25μM, mean ± SEM, n = 3): 4.7 ± 0.7%
- inhibition at 12.5 µM (Electric-eel AChE; 12.5μM, mean ± SEM, n = 3): 19.6 ± 2.6%
- inhibition at 25 µM (Electric-eel AChE; 25μM, mean ± SEM, n = 3): 33.7 ± 1.2%
- inhibition at 50 µM (Electric-eel AChE; 50μM, mean ± SEM, n = 3): 73.6 ± 1.8%
- IC50 (Electric-eel AChE; [3]): 31.62 ± 0.04 µM

Compound: O=C1O[C@H]([C@@H](O)CO)C(O)=C1O [ascorbic acid]
- IC50, free radical scavenging activity (DPPH assay) [2]: 5.6 µg/mL (≈ 31.8 µM)
